Reference: patent US11986471B2, “Compounds and methods of use” (Tango Therapeutics, Inc., priority 2018, dated 2024)

Columns and labels:
[1] = biological target: T1, PRMT5 (Homo sapiens, UniProt O14744); assay: PRMT5 IC50 assay in the presence of SAM as cofactor; type: biochemical
T1 construct: purchased Viva (custom protein)
Procedure, shortened: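 IC50 values were measured against human PRMT5 with SAM, with MTA, or with no cofactor. Ki was derived from IC50 as Ki=IC50/1.5 with SAM and Ki=IC50/13.5 with MTA, and the Ki(SAM)/Ki(MTA) ratio was then taken.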

[2] = biological target: T1, PRMT5; assay: PRMT5 IC50 assay with no cofactor; type: biochemical
Procedure, shortened: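 Values reflect IC50 (μM) on human PRMT5 under three cofactor states. Selectivity is derived as the quotient of SAM-state Ki over MTA-state Ki, with each Ki obtained from its IC50.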

[3] = biological target: T1, PRMT5; assay: PRMT5 IC50 assay in the presence of MTA as cofactor; type: biochemical; conditions: for IC50: PRMT5, MTA as cofactor
Procedure, shortened: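 IC50 against PRMT5 determined with SAM as cofactor, with no cofactor, and with MTA as cofactor. Ki derived as IC50/1.5 for the SAM assay and IC50/13.5 for the MTA assay; SAM Ki to MTA Ki ratio also reported.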

[4] = tested on: HAP1 MTAP-intact; assay: SDMA in-cell western assay, HAP1 MTAP-intact cell line; type: cell-based; conditions: Homo sapiens
Procedure, shortened: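 Symmetric dimethylarginine (SDMA) levels were measured by in-cell western in an isogenic HAP1 pair, one expressing endogenous MTAP and one MTAP-null, and IC50 values were derived for each line. Compounds whose IC50 ratio between the lines is 3-fold or more are classed as MTAP-selective.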

[5] = tested on: HAP1 MTAP-deleted; assay: SDMA in-cell western assay, HAP1 MTAP-deleted cell line; type: cell-based; conditions: for IC50: Homo sapiens, HAP1 MTAP-deleted cell line; for MTAP Intact/Deleted Ratio: IC50 ratio HAP1 MTAP-intact / HAP1 MTAP-deleted
Procedure, shortened: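 Symmetric dimethylarginine (SDMA) levels were measured by in-cell western in MTAP-null HAP1 cells, one half of an MTAP-isogenic pair whose partner line expresses endogenous MTAP. Compound potency is reported as IC50.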

[6] = ratio between Ki in the presence of SAM and Ki in the presence of MTA
[7] = ratio between the Ki in the presence of SAM and the Ki in the presence of MTA

T1 sequence (O14744 whole entry): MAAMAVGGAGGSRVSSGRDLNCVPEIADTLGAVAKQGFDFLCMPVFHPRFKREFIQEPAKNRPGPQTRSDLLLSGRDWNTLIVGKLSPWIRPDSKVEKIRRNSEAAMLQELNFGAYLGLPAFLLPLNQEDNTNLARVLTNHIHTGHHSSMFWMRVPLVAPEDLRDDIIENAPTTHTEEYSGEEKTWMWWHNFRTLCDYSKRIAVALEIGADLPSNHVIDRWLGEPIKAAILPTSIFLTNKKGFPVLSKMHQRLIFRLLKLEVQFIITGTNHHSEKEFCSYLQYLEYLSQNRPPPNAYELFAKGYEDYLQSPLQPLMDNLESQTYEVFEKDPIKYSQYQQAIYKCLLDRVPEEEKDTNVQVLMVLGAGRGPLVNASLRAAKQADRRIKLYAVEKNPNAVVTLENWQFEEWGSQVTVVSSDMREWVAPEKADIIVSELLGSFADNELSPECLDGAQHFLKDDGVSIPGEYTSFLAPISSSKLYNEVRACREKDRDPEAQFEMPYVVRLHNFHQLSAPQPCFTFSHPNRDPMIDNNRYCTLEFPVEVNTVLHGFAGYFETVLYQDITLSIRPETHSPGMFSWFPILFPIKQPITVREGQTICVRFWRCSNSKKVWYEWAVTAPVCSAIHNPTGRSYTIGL
T1 sequence (Q9BQA1 whole entry partner): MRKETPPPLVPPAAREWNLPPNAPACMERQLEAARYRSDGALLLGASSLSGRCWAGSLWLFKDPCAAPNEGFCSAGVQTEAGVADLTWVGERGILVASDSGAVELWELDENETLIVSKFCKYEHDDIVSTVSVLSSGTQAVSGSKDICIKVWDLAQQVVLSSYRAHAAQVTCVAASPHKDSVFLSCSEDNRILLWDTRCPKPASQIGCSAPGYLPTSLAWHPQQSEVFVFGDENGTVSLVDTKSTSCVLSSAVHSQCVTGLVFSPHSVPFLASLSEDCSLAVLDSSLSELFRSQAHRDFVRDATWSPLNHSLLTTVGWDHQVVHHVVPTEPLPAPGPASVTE

| SMILES | IC50 [1] | IC50 ([2]; read-out: No Co-factor IC50) | IC50 [3] | SAM/MTA Ratio [3, 6] | IC50 [4] | IC50 [5] | MTAP Intact/Deleted Ratio [5] | IC50 [2] | SAM/MTA Ratio [3, 7] |
| --- | --- | --- | --- | --- | --- | --- | --- | --- | --- |
| Cc1ncoc1COc1ccc2c(c1)CCN(C[C@@H](O)CNC(=O)c1cc(NC3COC3)nc(N3CCN(C(C)(C)C)CC3)n1)C2 [Compound 396, 2-(4-tert-butylpiperazin-1-yl)-N-[(2S)-2-hydroxy-3-(6-[(4-methyl-1,3-oxazol-5-yl)methoxy]-1,2,3,4-tetrahydroisoquinolin-2-yl}propyl]-6-[(oxetan-3-yl)amino]pyrimidine-4-carboxamide] | 50 to 500 nM | 500 to 5000 nM | 50 to 500 nM | A (a Ki ratio greater than or equal to 10 fold between the Ki in the presence of SAM and the Ki in the presence of MTA) | 1000 to 10000 nM | < 1000 nM | C* (an IC50 ratio of less than 3 fold between the IC50 in the HAP1 MTAP-intact cell line and the HAP1 MTAP-deleted cell line) |  |  |
| Cc1ncoc1COc1ccc2c(c1)CCN(C[C@@H](O)CNC(=O)c1cc(NC3CCC3)nc(N3CCN(C(=O)C(C)C)CC3)c1)C2 [Compound 463, 2-(cyclobutylamino)-N-[(2S)-2-hydroxy-3-{6-[(4-methyl-1,3-oxazol-5-yl)methoxy]-1,2,3,4-tetrahydroisoquinolin-2-yl}propyl]-6-[4-(2-methylpropanoyl)piperazin-1-yl]pyridine-4-carboxamide] | 50 to 500 nM |  | 50 to 500 nM |  | < 1000 nM | < 1000 nM | B* (an IC50 ratio greater than or equal to 3 fold but lower than 10 fold between the IC50 in the HAP1 MTAP-intact cell line and the HAP1 MTAP-deleted cell line) | 500 to 5000 nM | A (a Ki ratio greater than or equal to 10 fold between the Ki in the presence of SAM and the Ki in the presence of MTA) |
| Cc1ncoc1COc1ccc2c(c1)CCN(C[C@@H](O)CNC(=O)c1cc(NC3CCC3)nc(N3CCN(C(C)C)CC3)c1)C2 [Compound 428, 2-(cyclobutylamino)-N-[(2S)-2-hydroxy-3-{6-[(4-methyl-1,3-oxazol-5-yl)methoxy]-1,2,3,4-tetrahydroisoquinolin-2-yl}propyl]-6-[4-(propan-2-yl)piperazin-1-yl]pyridine-4-carboxamide] | 50 to 500 nM |  | < 50 nM |  | ≥ 10000 nM | ≥ 10000 nM | C* (an IC50 ratio of less than 3 fold between the IC50 in the HAP1 MTAP-intact cell line and the HAP1 MTAP-deleted cell line) | 500 to 5000 nM | A (a Ki ratio greater than or equal to 10 fold between the Ki in the presence of SAM and the Ki in the presence of MTA) |
| CCN(C)c1nc(NC2COC2)cc(C(=O)NC[C@H](O)CN2CCc3cc(OCc4ocnc4C)ccc3C2)n1 [Compound 457, 2-[ethyl(methyl)amino]-N-[(2S)-2-hydroxy-3-{6-[(4-methyl-1,3-oxazol-5-yl)methoxy]-1,2,3,4-tetrahydroisoquinolin-2-yl}propyl]-6-[(oxetan-3-yl)amino]pyrimidine-4-carboxamide] | 50 to 500 nM |  | 50 to 500 nM |  | < 1000 nM | < 1000 nM | C* (an IC50 ratio of less than 3 fold between the IC50 in the HAP1 MTAP-intact cell line and the HAP1 MTAP-deleted cell line) | 500 to 5000 nM | A (a Ki ratio greater than or equal to 10 fold between the Ki in the presence of SAM and the Ki in the presence of MTA) |
| Cc1c(OCc2cnco2)ccc2c1CCN(C[C@@H](O)CNC(=O)c1cccc(NC3COC3)c1)C2 [Compound 424, N-[(2S)-2-hydroxy-3-{5-methyl-6-[(1,3-oxazol-5-yl)methoxy]-1,2,3,4-tetrahydroisoquinolin-2-yl}propyl]-3-[(oxetan-3-yl)amino]benzamide] | 500 to 5000 nM | ≥ 5000 nM | 500 to 5000 nM | A (a Ki ratio greater than or equal to 10 fold between the Ki in the presence of SAM and the Ki in the presence of MTA) | ≥ 10000 nM | ≥ 10000 nM | C* (an IC50 ratio of less than 3 fold between the IC50 in the HAP1 MTAP-intact cell line and the HAP1 MTAP-deleted cell line) |  |  |
| CCN1CCN(c2cc(C(=O)NC[C@H](O)CN3CCc4cc(OCc5ocnc5C)ccc4C3)cc(NC3CCC3)n2)CC1 [Compound 410, 2-(cyclobutylamino)-6-(4-ethylpiperazin-1-yl)-N-[(2S)-2-hydroxy-3-{6-[(4-methyl-1,3-oxazol-5-yl)methoxy]-1,2,3,4-tetrahydroisoquinolin-2-yl}propyl]pyridine-4-carboxamide] | 50 to 500 nM | 500 to 5000 nM | 50 to 500 nM | A (a Ki ratio greater than or equal to 10 fold between the Ki in the presence of SAM and the Ki in the presence of MTA) | < 1000 nM | < 1000 nM | B* (an IC50 ratio greater than or equal to 3 fold but lower than 10 fold between the IC50 in the HAP1 MTAP-intact cell line and the HAP1 MTAP-deleted cell line) |  |  |
| O=C(NC[C@H](O)CN1CCc2cc(OCc3cnco3)ccc2C1)c1cc(NC2COC2)nc(N2CCOCC2)n1 [Compound 304, (S)—N-(2-hydroxy-3-(6-(oxazol-5-ylmethoxy)-3N-dihydroisoquinolin-2(1H)-yl)propyl)-2-morpholino-6-(oxetan-3-ylamino)pyrimidine-4-carboxamide] | 50 to 500 nM | 500 to 5000 nM | 50 to 500 nM |  | 1000 to 10000 nM | 1000 to 10000 nM | C* (an IC50 ratio of less than 3 fold between the IC50 in the HAP1 MTAP-intact cell line and the HAP1 MTAP-deleted cell line) |  |  |
| O=C(NC[C@H](O)CN1CCc2c(ccc(OCc3cnco3)c2Cl)C1)c1ccnc(NC2CCC(F)CC2)c1 (stereo partly drawn) [Compound 311, (S)—N-(3-(5-chloro-6-(oxazol-5-ylmethoxy)-3N-dihydroisoquinolin-2(1H)-yl)-2-hydroxypropyl)-2-((4-fluorocyclohexyl)amino)isonicotinamide] | 50 to 500 nM | ≥ 5000 nM | 50 to 500 nM | A (a Ki ratio greater than or equal to 10 fold between the Ki in the presence of SAM and the Ki in the presence of MTA) | ≥ 10000 nM | ≥ 10000 nM | C* (an IC50 ratio of less than 3 fold between the IC50 in the HAP1 MTAP-intact cell line and the HAP1 MTAP-deleted cell line) |  |  |
| Cc1c(OCc2cnco2)ccc2c1CCN(C[C@@H](O)CNC(=O)c1ccc3c(c1)CCN(C(=O)c1ccc(Br)cc1)C3)C2 [Compound 546] | 50 to 500 nM |  | 50 to 500 nM |  | ≥ 10000 nM | ≥ 10000 nM | C* (an IC50 ratio of less than 3 fold between the IC50 in the HAP1 MTAP-intact cell line and the HAP1 MTAP-deleted cell line) | 500 to 5000 nM |  |
| COCCN(C)c1cc(C(=O)NC[C@H](O)CN2CCc3cc(OCc4ocnc4C)ccc3C2)cc(NC2CCC2)n1 [Compound 554] | 50 to 500 nM |  | 50 to 500 nM |  | < 1000 nM | < 1000 nM | C* (an IC50 ratio of less than 3 fold between the IC50 in the HAP1 MTAP-intact cell line and the HAP1 MTAP-deleted cell line) | 500 to 5000 nM | A (a Ki ratio greater than or equal to 10 fold between the Ki in the presence of SAM and the Ki in the presence of MTA) |
| Cc1ncoc1COc1ccc2c(c1)CCN(C[C@@H](O)CNC(=O)c1cc(NC3CCCCC3)ncn1)C2 [Compound 388, 6-(cyclohexylamino)-N-[(2S)-2-hydroxy-3-{6-[(4-methyl-1,3-oxazol-5-yl)methoxy]-1,2,3,4-tetrahydroisoquinolin-2-yl}propyl]pyrimidine-4-carboxamide] | 50 to 500 nM | ≥ 5000 nM | 50 to 500 nM | A (a Ki ratio greater than or equal to 10 fold between the Ki in the presence of SAM and the Ki in the presence of MTA) | < 1000 nM | < 1000 nM | B* (an IC50 ratio greater than or equal to 3 fold but lower than 10 fold between the IC50 in the HAP1 MTAP-intact cell line and the HAP1 MTAP-deleted cell line) |  |  |
| CCN(C)c1nc(NC2COC2)cc(C(=O)NC[C@H](O)CN2CCc3cc(OCc4cnco4)ccc3C2)n1 [Compound 289] | 50 to 500 nM | 500 to 5000 nM | 50 to 500 nM | A (a Ki ratio greater than or equal to 10 fold between the Ki in the presence of SAM and the Ki in the presence of MTA) | 1000 to 10000 nM | 1000 to 10000 nM | B* (an IC50 ratio greater than or equal to 3 fold but lower than 10 fold between the IC50 in the HAP1 MTAP-intact cell line and the HAP1 MTAP-deleted cell line) |  |  |
| Cc1c(OCc2cnco2)ccc2c1CCN(C[C@@H](O)CNC(=O)c1cc(NC3CCN(C(=O)C(C)(C)C)CC3)ncn1)C2 [Compound 523, 6-{[1-(2,2-dimethylpropanoyl)piperidin-4-yl]amino}-N-[(2S)-2-hydroxy-3-{5-methyl-6-[(1,3-oxazol-5-yl)methoxy]-1,2,3,4-tetrahydroisoquinolin-2-yl}propyl]pyrimidine-4-carboxamide] | 50 to 500 nM |  | 50 to 500 nM |  | ≥ 10000 nM | ≥ 10000 nM | C* (an IC50 ratio of less than 3 fold between the IC50 in the HAP1 MTAP-intact cell line and the HAP1 MTAP-deleted cell line) | ≥ 5000 nM | A (a Ki ratio greater than or equal to 10 fold between the Ki in the presence of SAM and the Ki in the presence of MTA) |
